Reference: ChEMBL document CHEMBL4483862, “Open-source discovery of chemical leads for next-generation chemoprotective antimalarials” (2018)

Tested on: Plasmodium berghei
Assay: Luciferase/luciferin-expressing antifolate-resistant parasites were used to infect a culture of HepG2 cells that were pre-incubated with compounds. Infected hepatocytes emit light due to the luciferase reaction. Assay results are presented as the percent inhibition of light emission compared to control. […]
Type: functional
Conditions: sporozoite; for IC90: read-out: LUCIFERASE INFECTION ASSAY - IC90

| SMILES | IC90 | other results |
| --- | --- | --- |
| CCC1CCCCN1CC(=O)Nc1cc(C)nn1-c1nc(C)cc(C)n1 (centres undefined) | > 10 µM | IC50 (HEPG2TOX_HILL_SLOPE 4.29, HEPG2TOX_R_SQUARED 0.929, read-out: LUCIFERASE INFECTION ASSAY - IC50): > 10 µM |
| Nc1nc(Cl)cc(NCCc2ccccc2)n1 | > 13.3 µM | IC50 (HEPG2TOX_HILL_SLOPE 4.29, HEPG2TOX_R_SQUARED 0.965, PBLUC_HILL_SLOPE 3.15, PBLUC_R_SQUARED 0.0969, read-out: LUCIFERASE INFECTION ASSAY - IC50): 10.4 µM |
| COc1ccc(OC)c(/C=C/C(=O)N2C(=O)c3cccc(N)c3C2=O)c1 | > 10 µM | IC50 (HEPG2TOX_HILL_SLOPE 4.32, HEPG2TOX_R_SQUARED 0.934, PBLUC_HILL_SLOPE 15.3, PBLUC_R_SQUARED 0.377, read-out: LUCIFERASE INFECTION ASSAY - IC50): 9.46 µM |
| CCCCNc1nc(-c2ccccc2)c(C(=O)OCC)cc1C#N | 9.48 µM | IC50 (HEPG2TOX_HILL_SLOPE 4.31, HEPG2TOX_R_SQUARED 0.989, PBLUC_HILL_SLOPE 14.5, PBLUC_R_SQUARED 0.263, read-out: LUCIFERASE INFECTION ASSAY - IC50): 8.14 µM |
| N#C/C(=C\C=C\c1ccccc1[N+](=O)[O-])C(=O)NC1CCCCC1 | 4.14 µM | IC50 (HEPG2TOX_HILL_SLOPE 4.42, HEPG2TOX_R_SQUARED 0.954, PBLUC_HILL_SLOPE 12.2, PBLUC_R_SQUARED 0.458, read-out: LUCIFERASE INFECTION ASSAY - IC50): 3.46 µM |
| COc1ccc(C(=O)Nc2nc3ccccc3[nH]2)cc1 | > 10 µM | IC50 (HEPG2TOX_HILL_SLOPE 4.46, HEPG2TOX_R_SQUARED 0.552, PBLUC_HILL_SLOPE 2.95, PBLUC_R_SQUARED 0.511, read-out: LUCIFERASE INFECTION ASSAY - IC50): 7.58 µM |
| Cn1c(-c2ccccc2)nc2cnc(-c3ccc(N)nc3)cc21 | > 10 µM | IC50 (HEPG2TOX_HILL_SLOPE 4.2, HEPG2TOX_R_SQUARED 0.898, PBLUC_HILL_SLOPE 2.04, PBLUC_R_SQUARED 0.316, read-out: LUCIFERASE INFECTION ASSAY - IC50): 5.32 µM |
| O=C(O)c1c(CN2CCN(c3ccccc3)CC2)c(O)c2ccccc2c1O | 8.28 µM | IC50 (HEPG2TOX_HILL_SLOPE 4.36, HEPG2TOX_R_SQUARED 0.83, PBLUC_HILL_SLOPE 4.96, PBLUC_R_SQUARED 0.0239, read-out: LUCIFERASE INFECTION ASSAY - IC50): 5.31 µM |
| O=C(CNc1cccc(S(=O)(=O)N2CCCCC2)c1)NC(=O)NC1CCCC1 | > 10 µM | IC50 (HEPG2TOX_HILL_SLOPE 4.49, HEPG2TOX_R_SQUARED 0.873, PBLUC_HILL_SLOPE 2.27, PBLUC_R_SQUARED 0.353, read-out: LUCIFERASE INFECTION ASSAY - IC50): 7.49 µM |
| CN1CCN(c2ccc(-c3cn4c(-c5ccc6ncccc6c5)cnc4cn3)cn2)CC1 | 3.03 µM | IC50 (HEPG2TOX_HILL_SLOPE 4.41, HEPG2TOX_R_SQUARED 0.745, PBLUC_HILL_SLOPE 17.7, PBLUC_R_SQUARED 0.338, read-out: LUCIFERASE INFECTION ASSAY - IC50): 2.68 µM |
| O=C1C(Cl)=C(OC(CO)CO)C(=O)c2ccccc21 | 1.49 µM | IC50 (HEPG2TOX_HILL_SLOPE 4.19, HEPG2TOX_R_SQUARED 0.978, PBLUC_HILL_SLOPE 3.44, PBLUC_R_SQUARED 0.808, read-out: LUCIFERASE INFECTION ASSAY - IC50): 0.784 µM |
| CC(=O)Nc1ccc(Nc2cc3c(cn2)nc(-c2ccccc2)n3C)cc1 | 3.77 µM | IC50 (HEPG2TOX_HILL_SLOPE 4.43, HEPG2TOX_R_SQUARED 0.848, PBLUC_HILL_SLOPE 16.8, PBLUC_R_SQUARED 0.556, read-out: LUCIFERASE INFECTION ASSAY - IC50): 3.31 µM |
| O=C(NN=CC1C(=O)N(c2ccccc2C(F)(F)F)C(=O)c2ccccc21)c1ccc(F)cc1 (centres undefined) | > 10 µM | IC50 (HEPG2TOX_HILL_SLOPE 4.25, HEPG2TOX_R_SQUARED 0.761, PBLUC_HILL_SLOPE 4.13, PBLUC_R_SQUARED 0.557, read-out: LUCIFERASE INFECTION ASSAY - IC50): 5.89 µM |
| CCS(=O)(=O)c1ncc(Cl)c(C(=O)Nc2ccccc2C(F)(F)F)n1 | 4.41 µM | IC50 (HEPG2TOX_HILL_SLOPE 4.53, HEPG2TOX_R_SQUARED 0.715, PBLUC_HILL_SLOPE 8.07, PBLUC_R_SQUARED 0.684, read-out: LUCIFERASE INFECTION ASSAY - IC50): 3.36 µM |
| COc1cc(C(=O)NNC(=O)c2nn(-c3ccccc3)cc2O)cc(OC)c1OC | > 10 µM | IC50 (HEPG2TOX_HILL_SLOPE 4.57, HEPG2TOX_R_SQUARED 0.844, PBLUC_HILL_SLOPE 7.94, PBLUC_R_SQUARED 0.6, read-out: LUCIFERASE INFECTION ASSAY - IC50): 8.48 µM |
| N#C/C(=C(\Oc1ccccc1)C(F)(F)F)c1ccccc1 | 10.9 µM | IC50 (HEPG2TOX_HILL_SLOPE 4.45, HEPG2TOX_R_SQUARED 0.985, PBLUC_HILL_SLOPE 11.8, PBLUC_R_SQUARED 0.682, read-out: LUCIFERASE INFECTION ASSAY - IC50): 9.07 µM |

| SMILES | IC90 | other results |
| --- | --- | --- |
| CN1CCN(c2ccc(Cl)cc2NC(=O)Nc2cc(Cl)ccc2N2CCN(C)CC2)CC1 | 3.56 µM | IC50 (HEPG2TOX_HILL_SLOPE 4.19, HEPG2TOX_R_SQUARED 0.986, PBLUC_HILL_SLOPE 15.5, PBLUC_R_SQUARED 0.444, read-out: LUCIFERASE INFECTION ASSAY - IC50): 3.09 µM |
| Cc1cc(NCc2ccccn2)n2nc(C)c(-c3ccccc3Cl)c2n1 | 5.5 µM | IC50 (HEPG2TOX_HILL_SLOPE 4.48, HEPG2TOX_R_SQUARED 0.152, PBLUC_HILL_SLOPE 2.08, PBLUC_R_SQUARED 0.431, read-out: LUCIFERASE INFECTION ASSAY - IC50): 1.91 µM |
| CCN1C(=O)N(Cc2cccc(OC)c2)C(=O)C12CCN(C(C)CCc1c[nH]c3ccccc13)CC2 (centres undefined) | 5.56 µM | IC50 (HEPG2TOX_HILL_SLOPE 4.28, HEPG2TOX_R_SQUARED 0.784, PBLUC_HILL_SLOPE 3.57, PBLUC_R_SQUARED 0.572, read-out: LUCIFERASE INFECTION ASSAY - IC50): 3 µM |
| CC1(C)C2CCC1(C)C(NC(=O)COc1ccc(Br)cc1Cl)C2 (centres undefined) | 8.17 µM | IC50 (HEPG2TOX_HILL_SLOPE 4.37, HEPG2TOX_R_SQUARED 0.564, PBLUC_HILL_SLOPE 4.64, PBLUC_R_SQUARED 0.01, read-out: LUCIFERASE INFECTION ASSAY - IC50): 5.08 µM |
| Clc1cccc(Cl)c1/C=C/c1nc2ccccc2n1Cc1ccccc1 | > 8.7 µM | IC50 (HEPG2TOX_HILL_SLOPE 4.4, HEPG2TOX_R_SQUARED 0.96, PBLUC_HILL_SLOPE 4.2, PBLUC_R_SQUARED 0.29, read-out: LUCIFERASE INFECTION ASSAY - IC50): 5.61 µM |
| CCOc1ccc(S(=O)(=O)Nc2cc3c4c(oc3c3ccccc23)CC(C)(C)CC4=O)cc1 | 6.15 µM | IC50 (HEPG2TOX_HILL_SLOPE 4.2, HEPG2TOX_R_SQUARED 0.972, PBLUC_HILL_SLOPE 5.12, PBLUC_R_SQUARED 0.622, read-out: LUCIFERASE INFECTION ASSAY - IC50): 4.01 µM |
| O=C(Cc1cccs1)Nc1nc2ccccc2nc1N1CCCC1 | > 10 µM | IC50 (HEPG2TOX_HILL_SLOPE 4.38, HEPG2TOX_R_SQUARED 0.169, read-out: LUCIFERASE INFECTION ASSAY - IC50): > 10 µM |
| CCCn1c(C)cc(/C=C(\C#N)C(=O)Nc2c(C)cccc2C(C)C)c1C | 2.35 µM | IC50 (HEPG2TOX_HILL_SLOPE 4.53, HEPG2TOX_R_SQUARED 0.804, PBLUC_HILL_SLOPE 3.44, PBLUC_R_SQUARED 0.565, read-out: LUCIFERASE INFECTION ASSAY - IC50): 1.24 µM |
| COc1ccc(C2=NN=C/C2=N\Nc2cc(C)cc(C)c2)cc1 | 4.13 µM | IC50 (HEPG2TOX_HILL_SLOPE 4.29, HEPG2TOX_R_SQUARED 0.94, PBLUC_HILL_SLOPE 14.3, PBLUC_R_SQUARED 0.412, read-out: LUCIFERASE INFECTION ASSAY - IC50): 3.54 µM |
| Oc1ccc(-c2cnc3cnc(-c4ccccc4Cl)cn23)cc1 | 4.1 µM | IC50 (HEPG2TOX_HILL_SLOPE 4.19, HEPG2TOX_R_SQUARED 0.981, PBLUC_HILL_SLOPE 3.43, PBLUC_R_SQUARED 0.853, read-out: LUCIFERASE INFECTION ASSAY - IC50): 2.16 µM |
| Cc1cc2ccccn2c1C(=O)c1nc(S(C)(=O)=O)ncc1Cl | > 10 µM | IC50 (HEPG2TOX_HILL_SLOPE 4.52, HEPG2TOX_R_SQUARED 0.995, PBLUC_HILL_SLOPE 10.9, PBLUC_R_SQUARED 0.162, read-out: LUCIFERASE INFECTION ASSAY - IC50): 8.19 µM |
| COC(=O)c1ccc(N2CCN(c3ccccc3Cl)CC2)nc1 | > 9.95 µM | IC50 (HEPG2TOX_HILL_SLOPE 4.29, HEPG2TOX_R_SQUARED 0.95, PBLUC_HILL_SLOPE 9.99, PBLUC_R_SQUARED 0.342, read-out: LUCIFERASE INFECTION ASSAY - IC50): 8.41 µM |
| O=C1c2ccccc2C(O)(C#Cc2ccccc2)N1c1ccccc1 (centres undefined) | 8.45 µM | IC50 (HEPG2TOX_HILL_SLOPE 4.52, HEPG2TOX_R_SQUARED 0.977, PBLUC_HILL_SLOPE 3.23, PBLUC_R_SQUARED 0.385, read-out: LUCIFERASE INFECTION ASSAY - IC50): 4.28 µM |
| Cc1cc(Br)ccc1OCC(=O)NC(C)c1ccccc1 (centres undefined) | > 9.48 µM | IC50 (HEPG2TOX_HILL_SLOPE 4.44, HEPG2TOX_R_SQUARED 0.285, read-out: LUCIFERASE INFECTION ASSAY - IC50): > 9.48 µM |
| O=C1OC(c2ccc(C(=O)c3ccccc3)cc2)=N/C1=C1\CCCCCN1 | > 10 µM | IC50 (HEPG2TOX_HILL_SLOPE 4.29, HEPG2TOX_R_SQUARED 0.683, PBLUC_HILL_SLOPE 20.1, PBLUC_R_SQUARED 0.207, read-out: LUCIFERASE INFECTION ASSAY - IC50): 9.14 µM |
| O=C(Nc1ccccc1)N1CCc2nc(NCc3cccc(Oc4ccccc4)c3)ncc2C1 | 3.15 µM | IC50 (HEPG2TOX_HILL_SLOPE 4.26, HEPG2TOX_R_SQUARED 0.801, PBLUC_HILL_SLOPE 11.5, PBLUC_R_SQUARED 0.365, read-out: LUCIFERASE INFECTION ASSAY - IC50): 2.6 µM |
